Data on two molecules can be found in paper PMC5731250 (Cell, 2017).

The subject of data set [1] is male C57BL/6J mice. The data set can be described thus: animal or person. The format is in vivo. The conditions noted are these: Mus musculus, ip, 1 h, read-out: ED50 (95% confidence intervals) Tail Flick.
The subject of data set [2] is male C57BL/6J mice. The data set can be described thus: animal or person. The data set is classed as in vivo. To be noted: Mus musculus, ip, 1 h, read-out: ED50 (95% confidence intervals) Hot Plate.
A further data set in a line: in vivo. The conditions noted are these: male, C57BL/6J, mouse, ip.
In a further data set the test system is MOR. To be noted: operational model; ref DeWire et al., 2013; cited from earlier work.

The structures appear in SMILES notation. Read-outs that look alike come from different tables or passages of the source.

As usually defined, the ED50 is the dose at which the effect has come halfway, by size or by number of responders. `CN1CC[C@]23c4c5ccc(O)c4O[C@H]2[C@@H](O)C=C[C@H]3[C@H]1C5` [Morphine]: the ED50 came to 3.8 mg/kg in the data set on male C57BL/6J mice [1], 5.9 mg/kg in the data set on male C57BL/6J mice [2], 33 mg/kg in “in vivo” and 79 mg/kg in “in vivo” (ED50 (95% confidence intervals) %O2 Saturation).

Turning to `COc1ccsc1CNCC[C@@]1(c2ccccn2)CCOC2(CCCC2)C1` [TRV-130], the “bias factor (G protein signaling over βarrestin pathway)” value with MOR is recorded as 3.
